Source: US20060183921A1, “Pharmaceutically active compounds and methods of use” (priority 2001, published 2006)

Tests used:
[1] = biological target: T1, human recombinant A1-adenosine receptors (Homo sapiens, UniProt P30542); assay: Measurement of cAMP enhancement in CHO cells (allosteric enhancement, cAMP content by radioimmunoassay); format: cell-based; conditions: CHO:huA1 cells, forskolin 1 μM, rolipram 20 μM, CPA 0.01 nM, 6 min at 36° C., control 100%
T1 construct: expressed in transfected cells; host or cells: CHO (Chinese hamster ovary) cells, CHO:huA1, under G-418 selection
T1 sequence (P30542 1-326): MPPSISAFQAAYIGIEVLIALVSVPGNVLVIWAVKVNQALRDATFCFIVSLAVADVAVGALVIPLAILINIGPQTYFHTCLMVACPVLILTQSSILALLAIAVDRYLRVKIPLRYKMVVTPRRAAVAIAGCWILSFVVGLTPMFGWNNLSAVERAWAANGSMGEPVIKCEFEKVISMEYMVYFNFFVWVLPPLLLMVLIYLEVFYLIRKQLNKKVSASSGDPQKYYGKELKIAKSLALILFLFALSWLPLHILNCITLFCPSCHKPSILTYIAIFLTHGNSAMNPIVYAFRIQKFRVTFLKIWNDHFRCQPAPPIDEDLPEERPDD
Method: Chinese hamster ovary cells expressing human recombinant A1-adenosine receptors (CHO:huA1 cells) at a density of approximately 8000 fmol/mg protein were prepared as previously described (Kollias-Baker et al., (1997), J. Pharmacol. Exp. Ther. 281: 761-768) and aliquots of the cells at low passage numbers were frozen and stored in liquid nitrogen. When compounds were tested, an aliquot of CHO:huA1 cells were rapidly thawed after removal from liquid nitrogen, then grown in Ham's F12 culture medium with 10% fetal bovine serum and 0.5 mg/mL of antibiotic G-418 (Shryock, Ozeck, and Belardinelli (1998), Mol. Pharmacol. 53: 886-893). Cells were passaged thrice weekly. Aliquots of cells were placed into 12-well plates with culture medium, serum, and antibiotic for 48 hours, by which time the cells had grown to a confluent monolayer.
Allosteric enhancement was measured as the action of a test compound at different concentrations (0.01, 0.1, 1 and 10 μM) to reduce the cAMP content of CHO:huA1 cells. To initiate an experiment, growth medium was removed from the 12-well plates and cells were washed once with warm Hanks' buffered saline. The wash solution was then removed and replaced with fresh Hanks' solution containing forskolin (1 μM), rolipram (20 μM), N^6-cyclopentyladenosine (CPA, 0.01 nM), adenosine deaminase (2 U/mL), and the test compound. Forskolin was used to stimulate the activity of adenylyl cyclase, rolipram to inhibit cAMP phosphodiesterase, adenosine deaminase to degrade endogenous adenosine, and CPA to cause a small increase of the number of activated adenosine receptors. After 6 min of incubation at 36° C. in the presence of test compound, the incubation solution was removed and hydrochloric acid (final concentration 50 mM) was added to terminate drug action. The content of cAMP in acidified extracts of cells was determined by radioimmunoassay as previously described (Kollias-Baker et al., (1997), J. Pharmacol. Exp. Ther. 281: 761-768). Because the magnitude of the effects of allosteric enhancers on CHO:huA1 cells changed subtly with passage number and differed slightly among different aliquots of cells, the actions of the test compounds and the action of a reference compound (PD 81,723) were assessed in each experiment. The effect of each test compound on cAMP content is presented in the accompanying table as a percentage of the value of cAMP content in the absence of drug (control, 100%). Each value is a mean±standard error of 6 determinations in each of the number of experiments indicated in the “n” column of the table.

Row | SMILES | melting point [°C] | Change in cAMP Content from Control (Mean ± SEM) ([1]; 0.01 μM test compound) [%] | Change in cAMP Content from Control (Mean ± SEM) ([1]; 0.1 μM test compound) [%] | Change in cAMP Content from Control (Mean ± SEM) ([1]; 1 μM test compound) [%] | Change in cAMP Content from Control (Mean ± SEM) ([1]; 10 μM test compound) [%]
1 | Cc1cccc2c1C(=O)c1c-2csc1N [Example 2, 1-Amino-7-methyl-2-thia-cyclopenta[a]inden-8-one] | 196 to 198 | – | – | – | –
2 | Cc1ccc2c(c1)-c1csc(N)c1C2=O [Example 3, 1-Amino-5-methyl-2-thia-cyclopenta[a]inden-8-one] | 157 to 159 | – | – | – | –
3 | Nc1scc2c1C(=O)c1c(Cl)cccc1-2 [Example 4, 1-Amino-7-chloro-2-thia-cyclopenta[a]inden-8-one] | 183 to 185 | – | – | – | –
4 | Nc1scc2c1C(=O)c1ccc(Cl)cc1-2 [Example 5, 1-Amino-5-chloro-2-thia-cyclopenta[a]inden-8-one] | 201 to 202 | – | – | – | –
5 | Nc1scc2c1C(=O)c1c-2ccc(Cl)c1Cl [Example 6, 1-Amino-6,7-dichloro-2-thia-cyclopenta[a]inden-8-one] | 254 to 255 | – | – | – | –
6 | Nc1scc2c1C(=O)c1cc(Br)ccc1-2 [Example 21, 1-Amino-6-bromo-2-thia-cyclopenta[a]inden-8-one] | – | −5 ± 4 | −15 ± 2 | 4 ± 5 | −16 ± 3
7 | Nc1scc2c1C(O)c1ccc(Cl)cc1-2 (stereo not shown) [Example 22, 1-Amino-5-chloro-8-hydroxy-2-thia-cyclopenta[a]indene] | – | 4 ± 2 | −1 ± 8 | 0 ± 7 | −17 ± 2
8 | CC(=O)Nc1scc2c1C(=O)c1ccc(Cl)cc1-2 [Example 23, 1-Acetylamino-5-chloro-2-thia-cyclopenta[a]inden-8-one] | – | −7 ± 2 | 9 ± 9 | −16 ± 3 | −42 ± 1
9 | Nc1ccc2c(c1)C(=O)c1c-2csc1N [Example 24, 1,6-Diamino-2-thia-cyclopenta[a]inden-8-one] | – | 5 ± 3 | 5 ± 3 | −1 ± 1 | −23 ± 6
10 | Nc1scc2c1C(=O)c1ccc(Cl)c(Cl)c1-2 [Example 25, 1-Amino-4,5-dichloro-2-thia-cyclopenta[a]inden-8-one] | – | 0 ± 5 | −9 ± 8 | −46 ± 2 | −75 ± 3
11 | Nc1sc2c3c1C(=O)c1ccc(Cl)cc1C3CN(Cc1ccccc1)C2 (stereo not shown) [Example 26, 5-Amino-2-benzyl-9-chloro-1,2,3,10b-tetrahydro-6H-benzo[h]thieno[2,3,4-de]isoquinolin-6-one] | – | −4 ± 1 | −1 ± 7 | 15 ± 6 | 25 ± 7
12 | Nc1scc2c1C(=O)c1c(Cl)cccc1C21SCCCS1 [Example 27, 3-Amino-5-chloro-9-spiro(1,3-dithian-2-yl)-9H-naphtho[2,3-c]thiophene-4-one] | – | 6 ± 3 | 8 ± 5 | 8 ± 9 | 0 ± 9
13 | Cc1sc(N)c(C(=O)c2cccc(C(F)(F)F)c2)c1C [PD 81,72, reference compound] | – | 4 ± 2 | 8 ± 3 | −32 ± 2 | −75 ± 1
